Source: the supplement of paper PMC10307832

How the values were obtained:
Assay in all cases: relative viability (nuclei count vs DMSO), 5 days (fraction); higher = more cells survive
[1] = compound: CC(=O)Nc1cccc(-n2c(=O)n(C3CC3)c(=O)c3c(Nc4ccc(I)cc4F)n(C)c(=O)c(C)c32)c1 [Trametinib] + CC(=O)c1c(C)c2cnc(Nc3ccc(N4CCNCC4)cn3)nc2n(C2CCCC2)c1=O [Palbociclib] (partner 0.5 µM)
Procedure, shortened: (§1)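 Relative viability equals treated-well nuclei counts divided by vehicle-well nuclei counts. Counts came from 4× images of lung cancer cell lines grown in 1536-well plates for 5 days after pin-tool dosing on the day after seeding. Dosing used one drug alone or a fixed anchor-drug dose plus five library-drug doses (not always all listed) in √10 steps, and values are medians of duplicate plates.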

[2] = compound: CN1C=C(C2=CC=CC=C21)/C=C\3/C4=C(C=CC=N4)NC3=O + COc1cc2c(Oc3ccc(NC(=O)C4(C(=O)Nc5ccc(F)cc5)CC4)cc3F)ccnc2cc1OCCCN1CCOCC1 [Foretinib] (partner 0.25 µM)
Procedure, shortened: as §1

[3] = compound: CC(=O)Nc1cccc(-n2c(=O)n(C3CC3)c(=O)c3c(Nc4ccc(I)cc4F)n(C)c(=O)c(C)c32)c1 [Trametinib] + O=C(c1cc(Cc2n[nH]c(=O)c3ccccc23)ccc1F)N1CCN(C(=O)C2CC2)CC1 [Olaparib] (partner 8 µM)
Procedure, shortened: as §1

[4] = compound: CC(=O)Nc1cccc(-n2c(=O)n(C3CC3)c(=O)c3c(Nc4ccc(I)cc4F)n(C)c(=O)c(C)c32)c1 [Trametinib] + C[C@]1(O)C[C@@H](c2nc(-c3ccc4ccc(-c5ccccc5)nc4c3)c3c(N)nccn32)C1 [Linsitinib] (partner 1 µM)
Procedure, shortened: as §1

Cell Line | relative viability ([1]; first compound 0.0025 µM) | relative viability ([1]; first compound 0.007906 µM) | relative viability ([1]; first compound 0.025 µM) | relative viability ([1]; first compound 0.07906 µM) | relative viability ([1]; first compound 0.25 µM) | relative viability ([2]; first compound 0.02 µM) | relative viability ([2]; first compound 0.06325 µM) | relative viability ([2]; first compound 0.2 µM) | relative viability ([2]; first compound 0.6325 µM) | relative viability ([2]; first compound 2 µM) | relative viability ([3]; first compound 0.0025 µM) | relative viability ([3]; first compound 0.007906 µM) | relative viability ([3]; first compound 0.025 µM) | relative viability ([3]; first compound 0.07906 µM) | relative viability ([3]; first compound 0.25 µM) | relative viability ([4]; first compound 0.0025 µM) | relative viability ([4]; first compound 0.007906 µM) | relative viability ([4]; first compound 0.025 µM) | relative viability ([4]; first compound 0.07906 µM) | relative viability ([4]; first compound 0.25 µM)
NCI-H1355 | 0.353 | 0.321 | 0.217 | 0.225 | 0.224 | 0.957 | 0.893 | 0.958 | 0.772 | 0.766 | 0.663 | 0.686 | 0.552 | 0.48 | 0.39 | 0.737 | 0.605 | 0.375 | 0.433 | 0.352
NCI-H1395 | 0.56 | 0.562 | 0.517 | 0.567 | 0.489 | 0.889 | 0.942 | 0.864 | 0.992 | 0.868 | 0.441 | 0.458 | 0.419 | 0.463 | 0.392 | 0.981 | 1.15 | 1.14 | 1.02 | 0.673
NCI-H1437 | 0.319 | 0.226 | 0.204 | 0.196 | 0.211 | 1.34 | 1.22 | 1.34 | 1.31 | 1.3 | 0.601 | 0.518 | 0.446 | 0.422 | 0.443 | 0.996 | 0.412 | 0.294 | 0.209 | 0.176
NCI-H1651 | 0.489 | 0.501 | 0.51 | 0.459 | 0.432 | 0.809 | 0.803 | 0.894 | 0.891 | 0.812 | 0.197 | 0.178 | 0.182 | 0.179 | 0.161 | 0.969 | 0.763 | 0.888 | 0.835 | 0.659
NCI-H1666 | 0.695 | 0.662 | 0.665 | 0.66 | 0.686 | 0.972 | 0.991 | 0.938 | 0.879 | 1.02 | 0.735 | 0.699 | 0.706 | 0.755 | 0.726 | 0.56 | 0.524 | 0.426 | 0.571 | 0.388
NCI-H1734 | 0.337 | 0.353 |  | 0.292 | 0.241 | 0.928 | 0.875 |  | 0.904 | 1.03 | 0.632 | 0.578 |  | 0.59 | 0.431 | 0.845 | 0.739 |  | 0.788 | 0.613
NCI-H1755 | 0.425 | 0.406 | 0.384 | 0.392 | 0.365 | 0.813 | 0.83 | 0.899 | 0.838 | 0.833 | 0.849 | 0.826 | 0.804 | 0.807 | 0.742 | 0.847 | 0.82 | 0.764 | 0.847 | 0.801
NCI-H1793 | 0.277 | 0.242 | 0.225 | 0.213 | 0.192 | 0.877 | 0.815 | 0.682 | 0.601 | 0.659 | 0.529 | 0.461 | 0.361 | 0.29 | 0.211 | 0.806 | 0.523 | 0.309 | 0.302 | 0.296
NCI-H1915 | 0.477 | 0.382 | 0.196 | 0.19 | 0.143 | 1.09 | 1.15 | 1.14 | 1.18 | 1.18 | 0.266 | 0.21 | 0.198 | 0.168 | 0.144 | 1.14 | 1.05 | 0.671 | 0.674 | 0.278
NCI-H1944 | 0.316 | 0.246 | 0.223 | 0.207 | 0.163 | 0.89 | 0.874 |  | 0.826 | 0.77 | 0.39 | 0.343 | 0.341 | 0.288 | 0.236 | 1.08 | 0.79 | 0.643 | 0.606 | 0.428
NCI-H1975 | 0.543 | 0.349 | 0.506 | 0.19 | 0.129 | 0.87 | 0.918 | 0.83 | 0.697 | 0.837 | 0.816 | 0.633 | 0.566 | 0.376 | 0.322 | 0.93 | 0.897 | 0.603 | 0.384 | 0.38
NCI-H1993 | 0.553 | 0.526 | 0.548 | 0.61 | 0.448 | 0.665 | 0.739 | 0.72 | 0.788 | 0.688 | 0.961 | 0.834 | 0.789 | 0.542 | 0.537 | 0.774 | 0.752 | 0.719 | 0.723 | 0.745
NCI-H2009 | 0.138 | 0.135 | 0.109 | 0.135 | 0.125 | 1.22 | 1.19 | 1.19 | 1.24 | 1.24 | 0.693 | 0.768 | 0.508 | 0.338 | 0.308 | 0.916 | 0.717 | 0.483 | 0.472 | 0.334
NCI-H2023 | 0.348 | 0.3 | 0.24 | 0.196 | 0.119 | 0.841 | 0.837 |  | 0.924 | 0.746 | 0.492 | 0.448 | 0.419 | 0.447 | 0.294 | 0.549 | 0.47 | 0.45 | 0.424 | 0.217
NCI-H2085 | 0.494 | 0.421 | 0.371 | 0.395 | 0.406 | 1.1 | 0.843 | 0.998 | 1.02 | 1.02 | 0.766 | 0.659 | 0.558 | 0.638 | 0.615 | 0.812 | 0.688 | 0.607 | 0.728 | 0.737
NCI-H2087 | 0.162 | 0.137 | 0.127 | 0.111 | 0.0967 | 1.05 | 1.11 | 1.3 | 1.04 | 1.04 | 0.463 | 0.379 | 0.249 | 0.123 | 0.18 | 0.718 | 0.416 | 0.377 | 0.311 | 0.315
NCI-H2126 | 0.331 | 0.346 | 0.33 | 0.304 | 0.349 | 1.13 | 1.12 | 1.22 | 0.867 | 1.11 | 0.801 | 0.822 | 0.742 | 0.753 | 0.615 | 0.617 | 0.613 | 0.422 | 0.546 | 0.454
NCI-H2228 | 0.649 | 0.595 | 0.57 | 0.369 | 0.235 | 0.95 | 0.764 |  |  | 0.823 | 0.691 | 0.541 | 0.641 | 0.422 | 0.224 | 0.582 | 0.764 | 0.646 | 0.472 | 0.396
NCI-H2347 | 0.372 | 0.363 | 0.324 | 0.316 | 0.291 | 1.13 | 0.76 | 0.988 | 0.707 | 0.748 | 0.535 | 0.383 | 0.372 | 0.321 | 0.316 | 0.93 | 0.653 | 0.404 | 0.431 | 0.445
NCI-H2405 | 0.527 | 0.58 | 0.419 |  | 0.281 | 1.04 | 1.03 | 0.896 | 1.01 | 1.05 | 0.859 | 0.799 | 0.83 |  | 0.53 | 0.577 | 0.486 | 0.382 | 0.362 | 0.349
NCI-H3122 | 0.189 | 0.158 | 0.125 | 0.112 | 0.101 | 0.857 | 0.941 | 0.907 | 1.06 | 1.04 | 0.558 | 0.532 | 0.43 | 0.263 | 0.237 | 0.938 | 0.734 | 0.429 | 0.329 | 0.295
PC-3 [JPC-3] | 0.556 | 0.581 | 0.483 |  | 0.575 | 1.06 | 1.02 | 0.987 | 0.973 | 1.05 | 1.12 | 0.927 | 0.982 |  | 0.699 | 0.98 | 0.854 | 0.854 | 0.797 | 0.624
PC-14 | 0.46 | 0.306 | 0.295 | 0.214 | 0.102 | 0.993 | 0.975 | 1.04 | 0.959 | 1.01 | 0.282 | 0.225 | 0.216 | 0.222 | 0.106 | 0.996 | 0.89 | 0.787 | 0.59 | 0.434
RERF-LC-KJ | 1.03 | 0.857 | 0.914 | 0.848 | 0.66 | 0.924 | 0.938 | 0.867 | 0.859 | 0.779 | 0.926 | 0.81 | 0.919 | 0.907 | 0.648 | 0.862 | 0.792 | 0.751 | 0.791 | 0.793
SK-LU-1 | 0.416 | 0.319 | 0.307 | 0.296 | 0.259 | 0.596 | 0.705 | 0.869 | 0.713 | 0.992 | 0.429 | 0.364 | 0.406 | 0.311 | 0.274 | 1.18 | 0.965 | 0.888 | 0.778 | 0.443
SK-MES-1 | 0.358 | 0.357 | 0.319 | 0.354 | 0.26 | 0.795 | 0.668 | 0.96 | 0.875 | 0.865 | 0.841 | 0.737 | 0.546 | 0.373 | 0.245 | 1.02 | 0.938 | 0.779 | 0.505 | 0.338
SW 1573 | 0.36 | 0.301 | 0.298 | 0.158 | 0.17 | 0.995 | 0.925 | 0.894 | 0.975 | 0.822 | 0.414 | 0.456 | 0.407 | 0.342 | 0.223 | 0.847 | 0.602 | 0.654 | 0.487 | 0.449
